In US20260285850A1, “SUBSTITUTED OXAZOLIDINONES AND IMIDAZOLINONES AS HERBICIDES” (FMC CORPORATION, priority 2023, published 2026):

Experiments:
Type in all cases: in vivo
[1] = test system: ducksalad (Heteranthera limosa); test: Test B flooded paddy test, visual plant response rating 0-100; conditions: 250 g ai/ha, Flood, applied to paddy water, evaluated after 13 days
In short: (§1)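 Visual scores versus untreated controls were recorded 13 days after treatment of greenhouse-held plants. At the 2-leaf stage, pots were flooded 3 cm above the soil surface and compounds added straight to the water.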

[2] = test system: barnyardgrass (Echinochloa crusgalli); test: as above; conditions: 250 g ai/ha, Flood, applied to paddy water, evaluated after 13 days
In short: as §1

[3] = test system: sedge, umbrella (small-flower umbrella sedge, Cyperus difformis); test: as above; conditions: 250 g ai/ha, Flood, applied to paddy water, evaluated after 13 days
In short: as §1

rice (Oryza sativa) = test: as above; conditions: 250 g ai/ha, Flood, applied to paddy water, evaluated after 13 days
In short: as §1

corn (Zea mays) [4] = test: Test A postemergence application, visual injury rating 0-100
In short: (§2)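 Greenhouse test: loam/sand pots received a surfactant-containing formulation, as a preemergence directed soil spray or a postemergence spray on young plants. Injury was judged visually at day 10 relative to untreated controls.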

[5] = test system: galium (catchweed bedstraw, Galium aparine); test: as above
In short: as §2

[6] = test system: green foxtail (Setaria viridis); test: as above
In short: as §2

[7] = test system: blackgrass (Alopecurus myosuroides); test: as above
In short: as §2

[8] = test system: oat, wild (wild oat, Avena fatua); test: as above
In short: as §2

[9] = test system: ragweed (common ragweed, Ambrosia artemisiifolia); test: as above
In short: as §2

[10] = test system: ryegrass, Italian (italian ryegrass, Lolium multiflorum); test: as above
In short: as §2

[11] = test system: wheat (Triticum aestivum); test: as above
In short: as §2

[12] = test system: barnyardgrass (Echinochloa crus-galli); test: as above
In short: as §2

[13] = test system: horseweed (Erigeron canadensis); test: as above
In short: as §2

soybean (Glycine max) [14] = test: as above
In short: as §2

[15] = test system: palmer (palmer amaranth, palmer pigweed, Amaranthus palmeri); test: as above
In short: as §2

kochia (Bassia scoparia) [16] = test: as above
In short: as §2

corn (Zea mays) [17] = test: Test A preemergence soil spray, visual injury rating 0-100; conditions: 10 days
In short: as §2

[18] = test system: green foxtail (Setaria viridis); test: as above; conditions: 10 days
In short: as §2

[19] = test system: blackgrass (Alopecurus myosuroides); test: as above; conditions: 10 days
In short: as §2

[20] = test system: oat, wild (wild oat, Avena fatua); test: as above; conditions: 10 days
In short: as §2

[21] = test system: ragweed (common ragweed, Ambrosia artemisiifolia); test: as above; conditions: 10 days
In short: as §2

[22] = test system: ryegrass, Italian (italian ryegrass, Lolium multiflorum); test: as above; conditions: 10 days
In short: as §2

[23] = test system: wheat (Triticum aestivum); test: as above; conditions: 10 days
In short: as §2

[24] = test system: barnyardgrass (Echinochloa crus-galli); test: as above; conditions: 10 days
In short: as §2

soybean (Glycine max) [25] = test: as above; conditions: 10 days
In short: as §2

[26] = test system: palmer (palmer amaranth, palmer pigweed, Amaranthus palmeri); test: as above; conditions: 10 days
In short: as §2

kochia (Bassia scoparia) [27] = test: as above; conditions: 10 days
In short: as §2

[28] = 62 g ai/ha, postemergence, 10 days, 0 = no effect, 100 = complete control
[29] = Postemergence, 16 g ai/ha, greenhouse 10 days, 0 no effect, 100 complete control
[30] = 62 g ai/ha, 0 = no effect, 100 = complete control

CC1(C(=O)NC2CC=C(C(=O)OCC(F)(F)F)C2)CN(c2cc(Cl)cc(Cl)c2)C(=O)O1 (stereo not shown) [Compound 96]
Plant response rating, Ducksalad (0 to 100 scale, 0 is no effect and 100 is complete control) [1]: 70
Plant response rating, Barnyardgrass (0 to 100 scale, 0 is no effect and 100 is complete control) [2]: 95
Plant response rating, Sedge, Umbrella (0 to 100 scale, 0 is no effect and 100 is complete control) [3]: 95
Plant response rating, Rice (0 to 100 scale, 0 is no effect and 100 is complete control) (rice (Oryza sativa)): 25
Corn plant response rating (0-100) (corn (Zea mays) [4]; [28]): 100
Corn plant response rating (0 to 100 scale) (corn (Zea mays) [4]; [29]): 100
Galium plant response rating (0-100) [5, 28]: 90
Galium plant response rating (0 to 100 scale) [5, 29]: 70
Foxtail, Green plant response rating (0-100) [6, 28]: 90
Foxtail, Green plant response rating (0 to 100 scale) [6, 29]: 90
Blackgrass plant response rating (0-100) [7, 28]: 90
Blackgrass plant response rating (0 to 100 scale) [7, 29]: 80
Oat, Wild plant response rating (0-100) [8, 28]: 80
Oat, Wild plant response rating (0 to 100 scale) [8, 29]: 50
Ragweed plant response rating (0-100) [9, 28]: 60
Ragweed plant response rating (0 to 100 scale) [9, 29]: 40
Ryegrass, Italian plant response rating (0-100) [10, 28]: 90
Ryegrass, Italian plant response rating (0 to 100 scale) [10, 29]: 80
Wheat plant response rating (0-100) [11, 28]: 90
Wheat plant response rating (0 to 100 scale) [11, 29]: 30
Barnyardgrass plant response rating (0-100) [12, 28]: 100
Barnyardgrass plant response rating (0 to 100 scale) [12, 29]: 100
Horseweed plant response rating (0-100) [13, 28]: 70
Horseweed plant response rating (0 to 100 scale) [13, 29]: 40
Soybean plant response rating (0-100) (soybean (Glycine max) [14]; [28]): 80
Soybean plant response rating (0 to 100 scale) (soybean (Glycine max) [14]; [29]): 80
Pigweed, Palmer plant response rating (0-100) [15, 28]: 90
Pigweed, Palmer plant response rating (0 to 100 scale) [15, 29]: 70
Kochia plant response rating (0-100) (kochia (Bassia scoparia) [16]; [28]): 80
Kochia plant response rating (0 to 100 scale) (kochia (Bassia scoparia) [16]; [29]): 70
Corn plant response rating (corn (Zea mays) [17]; 16 g ai/ha, 0 to 100 scale): 0
Corn plant response rating (0-100) (corn (Zea mays) [17]; [30]): 40
Foxtail, Green plant response rating ([18]; 16 g ai/ha, 0 to 100 scale): 10
Foxtail, Green plant response rating (0-100) [18, 30]: 90
Blackgrass plant response rating ([19]; 16 g ai/ha, 0 to 100 scale): 0
Blackgrass plant response rating (0-100) [19, 30]: 0
Oat, Wild plant response rating ([20]; 16 g ai/ha, 0 to 100 scale): 0
Oat, Wild plant response rating (0-100) [20, 30]: 20
Ragweed plant response rating ([21]; 16 g ai/ha, 0 to 100 scale): 0
Ragweed plant response rating (0-100) [21, 30]: 0
Ryegrass, Italian plant response rating ([22]; 16 g ai/ha, 0 to 100 scale): 20
Ryegrass, Italian plant response rating (0-100) [22, 30]: 60
Wheat plant response rating ([23]; 16 g ai/ha, 0 to 100 scale): 0
Wheat plant response rating (0-100) [23, 30]: 0
Barnyardgrass plant response rating ([24]; 16 g ai/ha, 0 to 100 scale): 10
Barnyardgrass plant response rating (0-100) [24, 30]: 60
Soybean plant response rating (soybean (Glycine max) [25]; 16 g ai/ha, 0 to 100 scale): 10
Soybean plant response rating (0-100) (soybean (Glycine max) [25]; [30]): 30
Pigweed, Palmer plant response rating ([26]; 16 g ai/ha, 0 to 100 scale): 100
Pigweed, Palmer plant response rating (0-100) [26, 30]: 90
Kochia plant response rating (kochia (Bassia scoparia) [27]; 16 g ai/ha, 0 to 100 scale): 0
Kochia plant response rating (0-100) (kochia (Bassia scoparia) [27]; [30]): 0
